ChEMBL document CHEMBL2384992, “Conformation constraint of anilides enabling the discovery of tricyclic lactams as potent MK2 non-ATP competitive inhibitors” (Bioorg Med Chem Lett, 2013)
Blank lines part the entries; values can stand above or below the molecule they belong to.

Columns and labels:
[1] = Toxicity in human SW1353 cells; format: cell-based
[2] = molecular target: Casein kinase I isoform delta (Homo sapiens, UniProt P48730); test: Inhibition of CSNK1D (unknown origin)
[3] = molecular target: Rho-associated protein kinase 2 (Homo sapiens, UniProt O75116); test: Inhibition of ROCK2 (unknown origin)
[4] = molecular target: Insulin-like growth factor 1 receptor (Homo sapiens, UniProt P08069); test: Inhibition of IGF1R (unknown origin)
[5] = molecular target: Serine/threonine-protein kinase Nek2 (Homo sapiens, UniProt P51955); test: Inhibition of NEK2 (unknown origin)
[6] = molecular target: RAC-alpha serine/threonine-protein kinase (Homo sapiens, UniProt P31749); test: Inhibition of AKT1 (unknown origin)
[7] = molecular target: Serine/threonine-protein kinase Chk1 (Homo sapiens, UniProt O14757); test: Inhibition of CHK1 (unknown origin)
[8] = molecular target: Mitogen-activated protein kinase 1 (Homo sapiens, UniProt P28482); test: Inhibition of ERK2 (unknown origin)
[9] = molecular target: Epidermal growth factor receptor (Homo sapiens, UniProt P00533); test: Inhibition of EGFR (unknown origin)
[10] = molecular target: Serine/threonine-protein kinase PLK3 (Homo sapiens, UniProt Q9H4B4); test: Inhibition of PLK3 (unknown origin)
[11] = molecular target: Receptor-type tyrosine-protein kinase FLT3 (Homo sapiens, UniProt P36888); test: Inhibition of FLT3 (unknown origin)
[12] = molecular target: Calcium/calmodulin-dependent protein kinase type IV (Homo sapiens, UniProt Q16566); test: Inhibition of CAMK4 (unknown origin)
[13] = molecular target: MAP kinase-activated protein kinase 2 (Homo sapiens, UniProt P49137)
Description: Inhibition of MK2 (unknown origin) phosphorylation using TAMRA labeled peptide as substrate incubated 30 mins before substrate addition measured after 30 mins

[14] = molecular target: Protein kinase C alpha type (Homo sapiens, UniProt P17252); test: Inhibition of PKCA (unknown origin)
[15] = molecular target: Interleukin-1 receptor-associated kinase 4 (Homo sapiens, UniProt Q9NWZ3); test: Inhibition of IRAK4 (unknown origin)
[16] = molecular target: Ephrin type-B receptor 4 (Homo sapiens, UniProt P54760); test: Inhibition of EPHB4 (unknown origin)
[17] = molecular target: Serine/threonine-protein kinase 3 (Homo sapiens, UniProt Q13188); test: Inhibition of MST2 (unknown origin)
[18] = molecular target: Glycogen synthase kinase-3 beta (Homo sapiens, UniProt P49841); test: Inhibition of GSK3B (unknown origin)
[19] = molecular target: Testis-specific serine/threonine-protein kinase 2 (Homo sapiens, UniProt Q96PF2); test: Inhibition of TSSK2 (unknown origin)
[20] = molecular target: Tyrosine-protein kinase JAK2 (Homo sapiens, UniProt O60674); test: Inhibition of JAK2 (unknown origin)
[21] = molecular target: Tyrosine-protein kinase Lck (Homo sapiens, UniProt P06239); test: Inhibition of LCK (unknown origin)
[22] = molecular target: Hepatocyte growth factor receptor (Homo sapiens, UniProt P08581); test: Inhibition of MET (unknown origin)
[23] = molecular target: Inhibitor of nuclear factor kappa-B kinase subunit beta (Homo sapiens, UniProt O14920); test: Inhibition of IKKB (unknown origin)
[24] = system: THP-1; test: cells; settings: Homo sapiens
Description: Antiinflammatory activity in human THP1 cells assessed as inhibition of LPS-induced TNFalpha production treated 30 mins before LPS addition measured after 3 hrs by ELISA

SMILES: O=C1c2oc(-c3ccc(Cl)cc3)cc2Cc2cc(N3CCNCC3)ccc2N1Cc1ccccn1
CC50 [1]: 17.4 µM

IC50 [2]: > 30 µM
IC50 [3]: > 20 µM
IC50 [4]: > 30 µM
IC50 [5]: 13 µM
IC50 [6]: 16 µM
IC50 [7]: > 18 µM
IC50 [8]: > 30 µM
IC50 [9]: > 30 µM
IC50 [10]: > 30 µM
IC50 [11]: > 30 µM
IC50 [12]: 27 µM
IC50 [13]: 22 nM
IC50 [14]: 10 µM
IC50 [15]: 26 µM
IC50 [16]: > 30 µM
IC50 [17]: > 12 µM
IC50 [18]: > 30 µM
IC50 [19]: > 30 µM
IC50 [20]: 11 µM
IC50 [21]: > 19 µM
IC50 [22]: > 30 µM
IC50 [23]: 24 µM
SMILES: O=C1c2oc(-c3ccc(Cl)cc3)cc2Cc2cc(N3CCNCC3)ccc2N1Cc1ccccc1-c1cccnc1

EC50 [24]: 150 nM
SMILES: N#Cc1ccc(-c2cc3c(o2)C(=O)N(Cc2ccccc2-c2cncnc2)c2ccc(N4CCNCC4)cc2C3)cc1
